For 60 compounds, inhibition results are on record in article PMC11129182, “Development of Inhibitors, Probes, and PROTAC Provides a Complete Toolbox to Study PARK7 in the Living Cell” (Journal of Medicinal Chemistry, 2024).

The target in the first assay is T1, PARK7 (Homo sapiens, UniProt Q99497).
T1 sequence (Q99497 1-189): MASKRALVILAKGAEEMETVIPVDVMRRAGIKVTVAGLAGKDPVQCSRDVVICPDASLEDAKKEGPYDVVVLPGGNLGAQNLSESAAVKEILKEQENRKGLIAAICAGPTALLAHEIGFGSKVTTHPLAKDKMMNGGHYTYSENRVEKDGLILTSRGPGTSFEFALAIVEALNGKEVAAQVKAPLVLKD
The assay can be described thus: High-throughput screen of the crude compound library, PARK7 fluorescence polarization (FP) assay with FP reagent JYQ-107. It is filed as biochemical. The settings on record: 1.25 µM, crude compound library, FP reagent JYQ-107; read-out: HTS FP assay %Inhibition (1.25 µM).
Turning to `N#CN1CC[C@@H](C(=O)Nc2nc3c(s2)CN(C(=O)c2ccc(S(=O)(=O)N4CCCCCC4)cc2)CC3)C1` [compound 387], the inhibition at 1.25 µM turned out to be 74.8%.

For the compound `CC(C)(C)OC(=O)N1CC[C@H](C(=O)N2CCc3nc(NC(=O)[C@@H]4CCN(C#N)C4)sc3C2)C1` [compound 454], the inhibition at 1.25 µM is 73.8%.

As to `N#CN1CC[C@@H](C(=O)Nc2nc3c(s2)CN(C(=O)c2c(F)c(F)c(O)c(F)c2F)CC3)C1` [compound 442], the inhibition at 1.25 µM is 51.4%.

For `N#CN1CC[C@@H](C(=O)Nc2nc3c(s2)CN(C(=O)CCCCBr)CC3)C1` [compound 410], the inhibition at 1.25 µM worked out at 47.7%.

With `N#CN1CC[C@@H](C(=O)Nc2nc3c(s2)CN(C(=O)c2ccc(/N=N/c4ccccc4)cc2)CC3)C1` [compound 403], the inhibition at 1.25 µM was found to be 84.3%.

In the case of `N#CN1CC[C@@H](C(=O)Nc2nc3c(s2)CN(C(=O)c2cccnc2-n2cccn2)CC3)C1` [compound 348], the inhibition at 1.25 µM turned out to be 71.9%.

With `N#CN1CC[C@@H](C(=O)Nc2nc3c(s2)CN(C(=O)c2cc(C=O)ccc2O)CC3)C1` [compound 427], the inhibition at 1.25 µM was 63.9%.

For `N#CN1CC[C@@H](C(=O)Nc2nc3c(s2)CN(C(=O)Cc2ccccc2[N+](=O)[O-])CC3)C1` [compound 400], the inhibition at 1.25 µM came out at 80.8%.

As for `N#CN1CC[C@@H](C(=O)Nc2nc3c(s2)CN(C(=O)C2CCN(c4ncccn4)CC2)CC3)C1` [compound 476], the inhibition at 1.25 µM worked out at 70.3%.

As for `N#CN1CC[C@@H](C(=O)Nc2nc3c(s2)CN(C(=O)c2ccc(CBr)cc2)CC3)C1` [compound 414], the inhibition at 1.25 µM is -19.6%.

Take `C#CCCCC(=O)N1CCc2nc(NC(=O)[C@@H]3CCN(C#N)C3)sc2C1` [compound 416]: the inhibition at 1.25 µM was found to be 75.5%.

As for `N#CN1CC[C@@H](C(=O)Nc2nc3c(s2)CN(C(=O)c2cc(C4CCC4)on2)CC3)C1` [compound 374], the inhibition at 1.25 µM was 84%.

As to `N#CN1CC[C@@H](C(=O)Nc2nc3c(s2)CN(C(=O)c2ccc4c(c2)OCO4)CC3)C1` [compound 470], the inhibition at 1.25 µM came to 78.4%.

Take `CNS(=O)(=O)c1ccc(-c2ccccc2OC(F)(F)F)c(C(=O)N2CCc3nc(NC(=O)[C@@H]4CCN(C#N)C4)sc3C2)c1` [compound 352]: the inhibition at 1.25 µM came to 72%.

Regarding `CC(=O)Oc1ccccc1C(=O)N1CCc2nc(NC(=O)[C@@H]3CCN(C#N)C3)sc2C1` [compound 458], the inhibition at 1.25 µM turned out to be 67.9%.

Consider `N#CN1CC[C@@H](C(=O)Nc2nc3c(s2)CN(C(=O)C(c2ccccc2)n2cccc2)CC3)C1` (stereo partly drawn) [compound 375], for which the inhibition at 1.25 µM was 68.5%.

On to `N#CN1CC[C@@H](C(=O)Nc2nc3c(s2)CN(C(=O)Cc2csc(-c4ccccc4)n2)CC3)C1` [compound 346], for which the inhibition at 1.25 µM is 61.9%.

For `N#CN1CC[C@@H](C(=O)Nc2nc3c(s2)CN(C(=O)c2cccc(Oc4nccs4)c2)CC3)C1` [compound 351], the inhibition at 1.25 µM worked out at 88.9%.

Take `N#CN1CC[C@@H](C(=O)Nc2nc3c(s2)CN(C(=O)c2cc([N+](=O)[O-])ccc2Br)CC3)C1` [compound 441]: the inhibition at 1.25 µM was found to be 81.4%.

Staying with this assay, now noted: 1.25 µM, crude compound library; read-out: HTS FP assay %Inhibition (1.25 µM).
For `N#CN1CC[C@@H](C(=O)Nc2nc3c(s2)CN(C(=O)c2cnn(CC4CCCCO4)c2)CC3)C1` (stereo partly drawn) [compound 90], the inhibition at 1.25 µM is 81.3%.

Turning to `Cc1onc(C(=O)N2CCc3nc(NC(=O)[C@@H]4CCN(C#N)C4)sc3C2)c1CN1CCN(C)CC1` [compound 331], the inhibition at 1.25 µM was determined as 57.9%.

In the case of `N#CN1CC[C@@H](C(=O)Nc2nc3c(s2)CN(C(=O)C2CC(=O)N(CCN4CCOCC4)C2)CC3)C1` (stereo partly drawn) [compound 117], the inhibition at 1.25 µM was determined as 71.4%.

Take `Cc1cc(C(=O)N2CCc3nc(NC(=O)[C@@H]4CCN(C#N)C4)sc3C2)c(C)n1C1CC1` [compound 155]: the inhibition at 1.25 µM stood at 47.7%.

Consider `N#CN1CC[C@@H](C(=O)Nc2nc3c(s2)CN(C(=O)c2cnn(-c4ccncc4)c2)CC3)C1` [compound 41], for which the inhibition at 1.25 µM turned out to be 66.3%.

Regarding `N#CN1CC[C@@H](C(=O)Nc2nc3c(s2)CN(C(=O)C2CCCN(c4ncccn4)C2)CC3)C1` (stereo partly drawn) [compound 329], the inhibition at 1.25 µM came to 71.1%.

For `N#CN1CC[C@@H](C(=O)Nc2nc3c(s2)CN(C(=O)c2ccc(CN4CCOCC4)cc2)CC3)C1` [compound 103], the inhibition at 1.25 µM stood at 86.4%.

Consider `N#CN1CC[C@@H](C(=O)Nc2nc3c(s2)CN(C(=O)c2cccc(Cn4cncn4)c2)CC3)C1` [compound 278], for which the inhibition at 1.25 µM turned out to be 80.6%.

For `N#CN1CC[C@@H](C(=O)Nc2nc3c(s2)CN(C(=O)c2cccc(C(=O)N4CCCC4)n2)CC3)C1` [compound 286], the inhibition at 1.25 µM was found to be 81.9%.

Consider `N#CN1CC[C@@H](C(=O)Nc2nc3c(s2)CN(C(=O)C(OC2CCOCC2)c2ccccc2)CC3)C1` (stereo partly drawn) [compound 323], for which the inhibition at 1.25 µM was found to be 67.7%.

In the case of `N#CN1CC[C@@H](C(=O)Nc2nc3c(s2)CN(C(=O)c2ccc(Cn4ccnn4)o2)CC3)C1` [compound 280], the inhibition at 1.25 µM came to 81.9%.

With `N#CN1CC[C@@H](C(=O)Nc2nc3c(s2)CN(C(=O)C2CCN(Cc4ccc(Cl)s4)CC2)CC3)C1` [compound 23], the inhibition at 1.25 µM was determined as 68.4%.

With `N#CN1CC[C@@H](C(=O)Nc2nc3c(s2)CN(C(=O)c2cnoc2-c2ccccc2C(F)(F)F)CC3)C1` [compound 185], the inhibition at 1.25 µM was 77.5%.

As for `N#CN1CC[C@@H](C(=O)Nc2nc3c(s2)CN(C(=O)c2cccc(N4CCOCC4)n2)CC3)C1` [compound 277], the inhibition at 1.25 µM came to 64.6%.

For the compound `N#CN1CC[C@@H](C(=O)Nc2nc3c(s2)CN(C(=O)Cc2ccc(S(=O)(=O)N4CCOCC4)s2)CC3)C1` [compound 65], the inhibition at 1.25 µM is 87%.

As for `N#CN1CC[C@@H](C(=O)Nc2nc3c(s2)CN(C(=O)c2cnc(-c4ccco4)s2)CC3)C1` [compound 104], the inhibition at 1.25 µM was 62.8%.

On to `Cc1cc(C)c(C(=O)N2CCc3nc(NC(=O)[C@@H]4CCN(C#N)C4)sc3C2)c(OCC2CCCCC2)n1` [compound 47], for which the inhibition at 1.25 µM worked out at 75.4%.

As for `N#CN1CC[C@@H](C(=O)Nc2nc3c(s2)CN(C(=O)c2cccc(OCCOc4ccccc4Cl)n2)CC3)C1` [compound 225], the inhibition at 1.25 µM came out at 86.9%.

Take `COc1ccc(CN2CCC2C(=O)N2CCc3nc(NC(=O)[C@@H]4CCN(C#N)C4)sc3C2)cc1` (stereo partly drawn) [compound 228]: the inhibition at 1.25 µM came to 62.2%.

Consider `N#CN1CC[C@@H](C(=O)Nc2nc3c(s2)CN(C(=O)c2noc(-c4cccc(Cl)c4)n2)CC3)C1` [compound 85], for which the inhibition at 1.25 µM stood at 63%.

`Cc1noc(-c2ccc(C(=O)N3CCc4nc(NC(=O)[C@@H]5CCN(C#N)C5)sc4C3)cc2)n1` [compound 244]: the inhibition at 1.25 µM is 58.5%.

As to `CC1CCN(c2ncc(C(=O)N3CCc4nc(NC(=O)[C@@H]5CCN(C#N)C5)sc4C3)s2)CC1` [compound 88], the inhibition at 1.25 µM worked out at 77.3%.

Take `Cc1ccc(S(=O)(=O)N[C@@H](Cc2ccccc2)C(=O)N2CCc3nc(NC(=O)[C@@H]4CCN(C#N)C4)sc3C2)cc1` [compound 207]: the inhibition at 1.25 µM is 70%.

Turning to `N#CN1CC[C@@H](C(=O)Nc2nc3c(s2)CN(C(=O)CC2(n4cnnn4)CCOCC2)CC3)C1` [compound 226], the inhibition at 1.25 µM amounted to 68.7%.

As to `N#CN1CC[C@@H](C(=O)Nc2nc3c(s2)CN(C(=O)c2ccc(N4CCCC4)c(F)c2)CC3)C1` [compound 211], the inhibition at 1.25 µM is 86.4%.

On to `N#CN1CC[C@@H](C(=O)Nc2nc3c(s2)CN(C(=O)CC2(n4cccc4)CCCCC2)CC3)C1` [compound 145], for which the inhibition at 1.25 µM is 83.7%.

In the case of `Cn1nccc1[C@@H]1OCCC[C@H]1C(=O)N1CCc2nc(NC(=O)[C@@H]3CCN(C#N)C3)sc2C1` [compound 80], the inhibition at 1.25 µM worked out at 68.5%.

For `N#CN1CC[C@@H](C(=O)Nc2nc3c(s2)CN(C(=O)Cc2ccc(S(=O)(=O)N4CCCC4)s2)CC3)C1` [compound 15], the inhibition at 1.25 µM is 69.5%.

Consider `N#CN1CC[C@@H](C(=O)Nc2nc3c(s2)CN(C(=O)C2CCCN(S(=O)(=O)c4cccs4)C2)CC3)C1` (stereo partly drawn) [compound 288], for which the inhibition at 1.25 µM is 78.6%.

Turning to `N#CN1CC[C@@H](C(=O)Nc2nc3c(s2)CN(C(=O)Cc2ccn(-c4ccccc4)n2)CC3)C1` [compound 162], the inhibition at 1.25 µM stood at 82.9%.

For the compound `Cc1oc(-c2ccco2)nc1CC(=O)N1CCc2nc(NC(=O)[C@@H]3CCN(C#N)C3)sc2C1` [compound 44], the inhibition at 1.25 µM stood at 71.6%.

On to `CN1CCN(c2ccccc2C(=O)N2CCc3nc(NC(=O)[C@@H]4CCN(C#N)C4)sc3C2)CC1` [compound 17], for which the inhibition at 1.25 µM amounted to 51.2%.

For the compound `N#CN1CC[C@@H](C(=O)Nc2nc3c(s2)CN(C(=O)[C@@H]2CCO[C@H]2c2ccccc2)CC3)C1` [compound 39], the inhibition at 1.25 µM came out at 63.3%.

For `N#CN1CC[C@@H](C(=O)Nc2nc3c(s2)CN(C(=O)c2nc(C4CC4)ncc2Br)CC3)C1` [compound 255], the inhibition at 1.25 µM came out at 74%.

Consider `N#CN1CC[C@@H](C(=O)Nc2nc3c(s2)CN(C(=O)c2csc(-c4ccccn4)n2)CC3)C1` [compound 106], for which the inhibition at 1.25 µM was 85.1%.

On to `N#CN1CC[C@@H](C(=O)Nc2nc3c(s2)CN(C(=O)c2cc(C4CC4)n[nH]2)CC3)C1` [compound 209], for which the inhibition at 1.25 µM amounted to 86.7%.

Take `Cc1onc(-c2ccccn2)c1C(=O)N1CCc2nc(NC(=O)[C@@H]3CCN(C#N)C3)sc2C1` [compound 176]: the inhibition at 1.25 µM was determined as 68.5%.

As for `N#CN1CC[C@@H](C(=O)Nc2nc3c(s2)CN(C(=O)c2cc(-c4ccc(Br)cc4)ns2)CC3)C1` [compound 81], the inhibition at 1.25 µM worked out at 80.2%.

On to `Cc1csc(N2CCC(C(=O)N3CCc4nc(NC(=O)[C@@H]5CCN(C#N)C5)sc4C3)CC2)n1` [compound 190], for which the inhibition at 1.25 µM came out at 51.8%.

`N#CN1CC[C@@H](C(=O)Nc2nc3c(s2)CN(C(=O)C2CCN(C(=O)c4ccc(Cl)s4)CC2)CC3)C1` [compound 267]: the inhibition at 1.25 µM came out at 75.5%.

On to `Cc1ccccc1COc1cccc(CC(=O)N2CCc3nc(NC(=O)[C@@H]4CCN(C#N)C4)sc3C2)c1` [compound 204], for which the inhibition at 1.25 µM was determined as 73.6%.
